From US8003658B2, “Quinazoline derivatives for inhibiting cancer cell growth and method for the preparation thereof” (Hanmi Holdings Co., Ltd., priority 2004, dated 2011)
Read-outs that look alike come from different tables or passages of the source.

Assays:
SK-Br3 (ATCC: HTB-30) = test: Test of cancer cell growth inhibition (SRB), SK-Br3; details: read-out: IC50 SK-Br-3
A431 (ATCC: CRL-1555) = test: Test of cancer cell growth inhibition (SRB), A431; details: read-out: IC50 A431
[1] = Erb-B2 overexpressed SK-Br3, 72 hours, SRB
[2] = EGFR overexpressed A431, 72 hours, SRB

| SMILES | IC50 (SK-Br3 (ATCC: HTB-30); Homo sapiens, SK-BR-3, 72 h) | IC50 (A431 (ATCC: CRL-1555); Homo sapiens, A-431, 72 h) | IC50 (SK-Br3 (ATCC: HTB-30); [1]) | IC50 (A431 (ATCC: CRL-1555); [2]) |
| --- | --- | --- | --- | --- |
| CS(=O)(=O)CCNCC(=O)NCCCC(=O)Nc1ccc2ncnc(Nc3ccc(OCc4cccc(F)c4)c(Cl)c3)c2c1 [Example 107, N-{4-[3-chloro-4-(3-fluoro-benzyloxy)-phenylamino]-quinazolin-6-yl}-4-[2-(2-methanesulfonyl-ethylamino)-acetylamino]-butyramide] | 51 nM | 641 nM | – | – |
| CC(C)(C)OC(=O)NCCCCC(=O)Nc1ccc2ncnc(Nc3ccc(OCc4cccc(F)c4)c(Cl)c3)c2c1 [Example 114, (4-{4-[3-chloro-4-(3-fluoro-benzyloxy)-phenylamino]-quinazolin-6-ylcarbamoyl}-butyl)-carbamic acid t-butylester] | 216 nM | 136 nM | – | – |
| C[S+]([O-])CC(=O)NCCC(=O)Nc1ccc2ncnc(Nc3ccc(OCc4cccc(F)c4)c(Cl)c3)c2c1 (stereo not shown) [Example 118, N-{4-[3-chloro-4-(3-fluoro-benzyloxy)-phenylamino]-quinazolin-6-yl}-3-(2-methanesulfinyl-acetylamino)-propionamide] | 161 nM | 735 nM | – | – |
| O=C(CCNC(=O)C(F)(F)F)Nc1ccc2ncnc(Nc3ccc(OCc4cccc(F)c4)c(Cl)c3)c2c1 [Example 119, N-{4-[3-chloro-4-(3-fluoro-benzyloxy)-phenylamino]-quinazolin-6-yl}-3-(2,2,2-trifluoro-acetylamino)-propionamide] | 69 nM | 161 nM | – | – |
| CC(=O)OCC(=O)NCCC(=O)Nc1ccc2ncnc(Nc3ccc(OCc4cccc(F)c4)c(Cl)c3)c2c1 [Example 121, acetic acid (2-{4-[3-chloro-4-(3-fluoro-benzyloxy)-phenylamino]-quinazolin-6-ylcarbamoyl}-ethylcarbamoyl)-methylester] | 69 nM | 616 nM | – | – |
| CN(C)CCOCC(=O)NCCC(=O)Nc1ccc2ncnc(Nc3ccc(OCc4cccc(F)c4)c(Cl)c3)c2c1 [Example 122, N-{4-[3-chloro-4-(3-fluoro-benzyloxy)-phenylamino]-quinazolin-6-yl}-3-[2-(2-dimethylamino-ethoxy)-acetylamino]-propionamide] | 85 nM | 617 nM | – | – |
| O=C(CCNC(=O)Nc1ccccc1)Nc1ccc2ncnc(Nc3ccc(OCc4cccc(F)c4)c(Cl)c3)c2c1 [Example 124, N-{4-[3-chloro-4-(3-fluoro-benzyloxy)-phenylamino]-quinazolin-6-yl}-3-(3-phenyl-ureido)-propionamide] | 107 nM | 584 nM | – | – |
| O=C(CCNC(=O)NCc1ccco1)Nc1ccc2ncnc(Nc3ccc(OCc4cccc(F)c4)c(Cl)c3)c2c1 [Example 125, N-{4-[3-chloro-4-(3-fluoro-benzyloxy)-phenylamino]-quinazolin-6-yl}-3-(3-furan-2-ylmethyl-ureido)-propionamide] | 83 nM | 272 nM | – | – |
| COC(=O)NCCC(=O)Nc1ccc2ncnc(Nc3ccc(OCc4cccc(F)c4)c(Cl)c3)c2c1 [Example 126, (2-{4-[3-chloro-4-(3-fluoro-benzyloxy)-phenylamino]-quinazolin-6-ylcarbamoyl}-ethyl)-carbamic acid methylester] | 91 nM | 99 nM | – | – |
| O=C(CCNC(=O)OCc1ccccc1)Nc1ccc2ncnc(Nc3ccc(OCc4cccc(F)c4)c(Cl)c3)c2c1 [Example 128, (2-{4-[3-chloro-4-(3-fluoro-benzyloxy)-phenylamino]-quinazolin-6-ylcarbamoyl}-ethyl)-carbamic acid benzylester] | 585 nM | 489 nM | – | – |
| COCC(=O)NCCC(=O)Nc1ccc2ncnc(Nc3ccc(OCc4ccccn4)c(Cl)c3)c2c1 [Example 129-2, N-{4-[3-chloro-4-(pyridin-2-ylmethoxy)-phenylamino]-quinazolin-6-yl}-3-(2-methoxy-acetylamino)-propionamide] | 345 nM | 490 nM | – | – |
| COCC(=O)NCCC(=O)Nc1ccc2ncnc(Nc3ccc(OCc4cccnc4)c(Cl)c3)c2c1 [Example 132-2, N-{4-[3-chloro-4-(pyridin-3-ylmethoxy)-phenylamino]-quinazolin-6-yl}-3-(2-methoxy-acetylamino)-propionamide] | 662 nM | 880 nM | – | – |
| CS(=O)(=O)CC(=O)NCCC(=O)Nc1ccc2ncnc(Nc3ccc(OCc4cccnc4)c(Cl)c3)c2c1 [Example 133, N-{4-[3-chloro-4-(pyridin-3-ylmethoxy)-phenylamino]-quinazolin-6-yl}-3-(2-methanesulfonyl-acetylamino)-propionamide] | 1110 nM | 7260 nM | – | – |
| C=CC(=O)NCCC(=O)Nc1ccc2ncnc(Nc3ccc(OCc4cccnc4)c(Cl)c3)c2c1 [Example 134, N-(2-{4-[3-chloro-4-(pyridin-3-ylmethoxy)-phenylamino]-quinazolin-6-ylcarbamoyl}-ethyl)-acrylamide] | 4 nM | 193 nM | – | – |
| COCCOCC(=O)NCCC(=O)Nc1ccc2ncnc(Nc3ccc(OCc4cccc(F)c4)c(Cl)c3)c2c1 [Example 135, N-{4-[3-chloro-4-(3-fluoro-benzyloxy)-phenylamino]-quinazolin-6-yl}-3-[2-(2-methoxy-ethoxy)-acetylamino]-propionamide] | 92 nM | 123 nM | – | – |
| Cc1oncc1C(=O)NCCC(=O)Nc1ccc2ncnc(Nc3ccc(OCc4cccc(F)c4)c(Cl)c3)c2c1 [Example 136] | – | – | 1710 nM | 828 nM |
| CSCC(=O)NCCCC(=O)Nc1ccc2ncnc(Nc3ccc(OCc4cccc(F)c4)c(Cl)c3)c2c1 [Example 137, N-{4-[3-chloro-4-(3-fluoro-benzyloxy)phenylamino]-quinazolin-6-yl}-4-(2-methanesulfanyl-acetylamino)-butyramide] | – | – | 44 nM | 100 nM |
| C[S+]([O-])CC(=O)NCCCC(=O)Nc1ccc2ncnc(Nc3ccc(OCc4cccc(F)c4)c(Cl)c3)c2c1 (stereo not shown) [Example 138, N-{4-[3-chloro-4-(3-fluoro-benzyloxy)-phenylamino]-quinazolin-6-yl}-4-(2-methanesulfinyl-acetylamino)-butyramide] | 54 nM | 102 nM | – | – |
| C=CC(=O)NCCC(=O)N(CC)c1ccc2ncnc(Nc3ccc(OCc4cccc(F)c4)c(Cl)c3)c2c1 [Example 140, N-[2-({4-[3-chloro-4-(3-fluoro-benzyloxy)-phenylamino]-quinazolin-6-yl}-ethyl-carbamoyl)-ethyl]-acrylamide] | 102 nM | 102 nM | – | – |
| C=CC(=O)NCCC(=O)N(CCCN(C)C)c1ccc2ncnc(Nc3ccc(OCc4cccc(F)c4)c(Cl)c3)c2c1 [Example 141-4, N-{2-[{4-[3-chloro-4-(3-fluoro-benzyloxy)-phenylamino]-quinazolin-6-yl}-(3-dimethylamino-propyl)-carbamoyl]-ethyl}-acrylamide] | 804 nM | 1330 nM | – | – |
| C=CC(=O)NCCC(=O)Nc1ccc2ncnc(Nc3ccc(OCc4cccc(C)n4)c(Cl)c3)c2c1 [Example 144, N-(2-{4-[3-chloro-4-(6-methyl-pyridin-2-ylmethoxy)-phenylamino]-quinazolin-6-ylcarbamoyl}-ethyl)-acrylamide] | 8 nM | 73 nM | – | – |
| C=CC(=O)N1C[C@H](OC(C)=O)C[C@H]1C(=O)Nc1ccc2ncnc(Nc3ccc(OCc4ccccn4)c(Cl)c3)c2c1 [Example 148, (3R,5S)-acetic acid 1-acryloyl-5-{4-[3-chloro-4-(pyridin-2-ylmethoxy)-phenylamino]-quinazolin-6-ylcarbamoyl}-pyrrolidin-3-ylester] | 4 nM | 34 nM | – | – |
| C=CC(=O)N1C[C@H](O)C[C@H]1C(=O)Nc1ccc2ncnc(Nc3ccc(OCc4ccccn4)c(Cl)c3)c2c1 [Example 149, (2S,4R)-1-acryloyl-4-hydroxyl-pyrrolidine-2-carboxylic acid {4-[3-chloro-4-(pyridin-2-ylmethoxy)-phenylamino]-quinazolin-6-yl}-amide] | 2 nM | 54 nM | – | – |
| C=CC(=O)N1C[C@H](SCC)C[C@H]1C(=O)Nc1ccc2ncnc(Nc3ccc(OCc4ccccn4)c(Cl)c3)c2c1 [Example 150, (2S,4R)-1-acryloyl-4-ethylsulfanyl-pyrrolidine-2-carboxylic acid {4-[3-chloro-4-(pyridin-2-ylmethoxy)-phenylamino]-quinazolin-6-yl}-amide] | 6 nM | 36 nM | – | – |
| C=CC(=O)N1C[C@H](N(C)C)C[C@H]1C(=O)Nc1ccc2ncnc(Nc3ccc(OCc4ccccn4)c(Cl)c3)c2c1 [Example 151, (2S,4R)-1-acryloyl-4-dimethylamino-pyrrolidine-2-carboxylic acid {4-[3-chloro-4-(pyridin-2-ylmethoxy)-phenylamino]-quinazolin-6-yl}-amide] | 3 nM | 105 nM | – | – |
| C=CC(=O)N1CCC[C@H]1C(=O)Nc1ccc2ncnc(Nc3ccc(OCc4cccnc4)c(Cl)c3)c2c1 [Example 152, (2S)-1-acryloyl-pyrrolidine-2-carboxylic acid {4-[3-chloro-4-(pyridin-3-ylmethoxy)-phenylamino]-quinazolin-6-yl}-amide] | 4 nM | 166 nM | – | – |
| C=CC(=O)N1CCC[C@H]1C(=O)Nc1ccc2ncnc(Nc3ccc(OCc4ccncc4)c(Cl)c3)c2c1 [Example 153, (2S)-1-acryloyl-pyrrolidine-2-carboxylic acid {4-[3-chloro-4-(pyridin-4-ylmethoxy)-phenylamino]-quinazolin-6-yl}-amide] | 29 nM | 394 nM | – | – |
| C=CC(=O)N1CCCC1CC(=O)Nc1ccc2ncnc(Nc3ccc(OCc4ccccn4)c(Cl)c3)c2c1 (stereo not shown) [Example 154, 2-(1-acryloyl-pyrrolidin-2-yl)-N-{4-[3-chloro-4-(pyridin-2-ylmethoxy)-phenylamino]-quinazolin-6-yl}-acetamide] | 5 nM | 86 nM | – | – |
| C=CC(=O)N1CCC(C(=O)Nc2ccc3ncnc(Nc4ccc(OCc5ccccn5)c(Cl)c4)c3c2)C1 (stereo not shown) [Example 155, 1-acryloyl-pyrrolidine-3-carboxylic acid {4-[3-chloro-4-(pyridin-2-ylmethoxy)-phenylamino]-quinazolin-6-yl}-amide] | 12 nM | – | – | 350 nM |
